Data taken from US11512053B2, “Arginine methyltransferase inhibitors and uses thereof” (priority 2013, dated 2022).
Read-outs that look alike come from different tables or passages of the source.

Biological target: T1, full-length human PRMT3 isoform 1 (GST-tagged) (Homo sapiens, UniProt O60678)
T1 construct: GST-tagged PRMT3; made in house; host or cells: E. coli BL21(DE3) Gold
Assay: PRMT3 Biochemical Assay (3H-SAM Flashplate, peptide substrate)
Text: General Materials. S-adenosylmethionine (SAM), S-adenosylhomocysteine (SAH), bicine, Tween20, dimethylsulfoxide (DMSO), bovine skin gelatin (BSG),), isopropyl-β-D-thiogalactopyranoside (IPTG), and Tris(2-carboxyethyl)phosphine hydrochloride solution (TCEP) were purchased from Sigma-Aldrich at the highest level of purity possible. ^3H-SAM was purchase from American Radiolabeled Chemicals with a specific activity of 80 Ci/mmol. 384-well streptavidin Flashplates were purchased from PerkinElmer.
Substrates. Peptide containing the classic RMT substrate motif was synthesized with an N-terminal linker-affinity tag motif and a C-terminal amide cap by 21st Century Biochemicals. The peptide was purified by high-performance liquid chromatography (HPLC) to greater than 95% purity and confirmed by liquid chromatography mass spectrometry (LC-MS). The sequence was Biot-Ahx-[…]-amide (SEQ ID NO.:11).
Molecular Biology: Full-length human PRMT3 (NM_005788.3) isoform 1 transcript clone was amplified from an HEK 293 cDNA library and subcloned into pGEX-KG (GE Life Sciences). The resulting construct encodes an N-terminal GST tag and a thrombin cleavage sequence ([…] […] […] […] S) (SEQ ID NO.:12) fused directly to Cys 2 of PRMT3.
Protein Expression. E. coli (BL21(DE3) Gold, Stratagene) made competent by the CaCl2) method were transformed with the PRMT3 construct and ampicillin selection. Protein over-expression was accomplished by growing the PRMT3 expressing E. coli clone and inducing expression with 0.3 mM IPTG at 16° C. The culture was grown for 12 hours, harvested by centrifugation, and stored at −80° C. for purification.
Protein Purification. […] GST-tagged PRMT3 was eluted with 50 mM Tris, 2 mM glutathione, pH 7.1 and 50 mM Tris, 20 mM glutathione, pH 7.1. Pooled fractions were dialysed in 20 mM Tris, 50 mM NaCl, 5% glycerol, 1 mM EDTA, 1 mM DTT, pH7.5 (Buffer B) and applied to a Q Sepharose Fast Flow column. GST-tagged PRMT3 was eluted by 500 mM NaCl in buffer B. Pooled fractions were dialyzed in 25 mM phosphate buffer, 100 mM NaCl, 5% glycerol, 2 mM DTT, pH 6.8 (Buffer C) and loaded on to a ceramic hydroxyapatite column. GST-tagged PRMT3 eluted with 25-400 mM phosphate in buffer C. Protein was concentrated and buffer was exchanged to 20 mM Tris, 150 mM NaCl, 5% glycerol, 5 mM β-mercaptoethanol, pH7.8 by ultrafiltration. The purity of recovered protein was 70%.
General Procedure for PRMT3 Enzyme Assays on Peptide Substrates. The assays were all performed in a buffer consisting of 20 mM Bicine (pH=7.6), 1 mM TCEP, 0.005% BSG, and 0.002% Tween 20, prepared on the day of use. Compounds in 100% DMSO (1 ul) were spotted into a polypropylene 384-well V-bottom plates (Greiner) using a Platemate Plus outfitted with a 384-channel head (Thermo Scientific). DMSO (1 ul) was added to Columns 11, 12, 23, 24, rows A-H for the maximum signal control and 1 ul of SAH, a known product and inhibitor of PRMT3, was added to columns 11, 12, 23, 24, rows I-P for the minimum signal control. A cocktail (40 ul) containing the PRMT3 enzyme was added by Multidrop Combi (Thermo-Fisher). The compounds were allowed to incubate with PRMT3 for 30 min at room temperature, then a cocktail (10 ul) containing SAM and peptide was added to initiate the reaction (final volume=51 ul). The final concentrations of the components were as follows: PRMT3 was 0.5 nM, ^3H-SAM was 100 nM, non-radiolabeled SAM was 1.8 uM, peptide was 330 nM, SAH in the minimum signal control wells was 1 mM, and the DMSO concentration was 2%. The assays were stopped by the addition of potassium chloride (10 ul) to a final concentration of 100 mM. 50 ul of the reaction in the 384-well polypropylene plate was then transferred to a 384-well Flashplate and the biotinylated peptides were allowed to bind to the streptavidin surface for at least 1 hour before being washed once with 0.1% Tween20 in a Biotek ELx405 plate washer. […]

[1] = single experiment or average of multiple experiments

T1 sequence (O60678 with tags, fused parts or gaps): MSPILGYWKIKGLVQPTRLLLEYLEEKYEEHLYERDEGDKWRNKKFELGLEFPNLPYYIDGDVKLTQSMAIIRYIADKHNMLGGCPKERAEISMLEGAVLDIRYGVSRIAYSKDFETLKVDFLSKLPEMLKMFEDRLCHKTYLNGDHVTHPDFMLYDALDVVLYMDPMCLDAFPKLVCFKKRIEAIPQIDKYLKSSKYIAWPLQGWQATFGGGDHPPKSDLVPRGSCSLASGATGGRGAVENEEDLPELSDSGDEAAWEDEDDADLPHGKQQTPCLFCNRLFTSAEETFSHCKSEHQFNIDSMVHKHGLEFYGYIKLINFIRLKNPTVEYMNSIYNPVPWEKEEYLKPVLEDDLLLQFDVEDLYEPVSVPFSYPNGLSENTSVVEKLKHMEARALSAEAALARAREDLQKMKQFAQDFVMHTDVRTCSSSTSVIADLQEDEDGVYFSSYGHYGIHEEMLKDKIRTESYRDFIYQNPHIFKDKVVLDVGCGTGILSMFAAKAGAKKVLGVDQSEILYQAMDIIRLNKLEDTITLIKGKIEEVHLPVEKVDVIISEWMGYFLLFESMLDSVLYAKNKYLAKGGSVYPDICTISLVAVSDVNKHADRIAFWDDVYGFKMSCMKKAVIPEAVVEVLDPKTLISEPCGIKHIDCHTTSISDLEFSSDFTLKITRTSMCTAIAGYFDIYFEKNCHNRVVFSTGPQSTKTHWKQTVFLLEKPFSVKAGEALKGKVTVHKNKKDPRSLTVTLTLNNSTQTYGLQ

Row | Structure (SMILES) | IC50 [1] [µM] | IC50 [µM]
1 | CNCCN(C)Cc1c[nH]nc1C#Cc1cccc(OC)c1 [Compound 1] | 6.83 | 
2 | CNCCN(C)Cc1c[nH]nc1C#Cc1ccc(F)cc1 [Compound 4] | > 10 | > 10
3 | Cc1ccc(/C=C/c2n[nH]cc2CN(C)CCN)cc1 [Compound 8] | 5.81 | 
4 | CN(CCN)Cc1c[nH]nc1C1=CCOCC1 [Compound 10] | > 10 | > 10
5 | CN(CCN)Cc1c[nH]nc1C1CC1 [Compound 12] | > 10 | > 10
6 | CN(CCN)Cc1c[nH]nc1/C=C/c1ccc(C(F)(F)F)cc1 [Compound 18] | 1.75 | 
7 | CN(CCN)Cc1c[nH]nc1/C=C/c1cccc(F)c1 [Compound 20] | 2.34 | 
8 | CC(C)c1n[nH]cc1CN(C)CCN [Compound 21] | > 10 | > 10
9 | CN(CCN)Cc1c[nH]nc1CCc1ccc(F)cc1 [Compound 23, N^1-((3-(4-fluorophenethyl)-1H-pyrazol-4-yl)methyl)-N^1-methylethane-1,2-diamine] | 9.65 | 
10 | CN(CCN)Cc1c[nH]nc1/C=C/Cc1ccccc1 [Compound 24] | > 10 | > 10

Continued by falling IC50 [1], values first:

Row | IC50 [1] [µM] | Structure (SMILES) | IC50 [µM]
11 | 7.74 | COC/C=C/c1n[nH]cc1CN(C)CCN [Compound 19] | 
12 | 6.77 | CN(CCN)Cc1c[nH]nc1/C=C/c1cc(C(F)(F)F)cc(C(F)(F)F)c1 [Compound 14] | 
13 | 6.46 | CN(CCN)Cc1c[nH]nc1C1CCCCC1 [Compound 22] | 
14 | 5.91 | CNCCN(C)Cc1c[nH]nc1/C=C/c1ccc(OC)cc1 [Compound 7] | 
15 | 5.79 | CN(CCN)Cc1c[nH]nc1/C=C/c1cccc(C(F)(F)F)c1 [Compound 16] | 
16 | 3.94 | CNCCN(C)Cc1c[nH]nc1/C=C/c1ccc(C(F)(F)F)cc1 [Compound 6] | 
17 | 3.62 | CN(CCN)Cc1c[nH]nc1/C=C/c1ccc(F)cc1F [Compound 13] | 
18 | 3 | CNCCN(C)Cc1c[nH]nc1C#Cc1ccc(C(C)(C)C)cc1 [Compound 2] | 
19 | 2.36 | COc1cccc(/C=C/c2n[nH]cc2CN(C)CCN)c1 [Compound 17] | 
20 | 2.34 | CN(CCN)Cc1c[nH]nc1/C=C/c1cc(F)cc(F)c1 [Compound 15] | 
21 | 1.58 | COc1cc(/C=C/c2n[nH]cc2CN(C)CCN)cc(OC)c1 [Compound 11] | 
22 | 1.45 | CNCCN(C)Cc1c[nH]nc1/C=C/c1ccc(-c2ccccc2)cc1 [Compound 5] | 
